Measurements from US10519177B2, “Heterocyclic compounds and uses thereof” (Plexxikon Inc., priority 2013, dated 2019).

Legend:
BRD4-BD12 (1-477) = BRD4-BD12 (1-477) (Homo sapiens (Human), UniProt O60885); assay: Alphascreen binding assay BRD4-BD12; settings: BRD4(1 2) H4; read-out: Biochemical activity (IC50 μM) BRD4(1 2) H4
Protocol: Binding of compounds of formula (I) with bromodomain 2, 3 4 was assessed using Alphascreen binding assay. The inhibition of the interaction between bromodomain and its acetylated target protein (Filippakopoulos P et al. 2012) was measured quantitatively using recombinant BRD proteins, an acetylated Histone 4 peptide and AlphaScreen™ technology. In absence of inhibition the BRD protein bound to AlphaScreen™ nickel chelate acceptor beads can interact with the acetylated Histone 4 peptide which is immobilized by the AlphaScreen™ Streptavidin coated beads. This interaction brings donor and acceptor beads in proximity. The close proximity allows the singlet oxygen produced by laser excitation of the donor beads to reach the acceptor beads and generate a luminescence signal.
Recombinant human bromodomains containing the N-terminal bromodomain (BRD2-BD1 (71-194), BRD3-BD1 (24-144) and BRD4-BD1 (44-164)) or dual bromodomains (BRD4-BD12 (1-477), BRD4-BD12 (1-472)) were prepared and purified as described in protein expression and purification session. The peptide is human Histone H41-21K5AcK8AcK12AcK16Ac-Biotin (Anaspec CA, USA).
Protocol for BRD2, BRD3 and BRD4 assay: All components are prepared in buffer composed of 50 mM HEPES pH 7.5, 100 mM NaCl, 0.01% bovine serum albumin (“BSA”), 0.01% Triton X-100, 2 mM dithiothreitol (“DTT”). 7 μL of Bromodomain protein and 7 μL of peptide are added to wells containing 1 μL of various concentrations of test compounds of formula (I) or DMSO vehicle in an Alphaplate (PerkinElmer GA, USA) and incubated for 1 hour at room temperature. 4 μL donor and acceptor bead mixture is then added with final concentrations of 7.5 μg/ml. 30 minutes after bead addition, Alpha signal is read on the Envision spectrometer (λEx 680 nm, λEm 520-620 nm). Final concentrations of bromodomain proteins and peptide are as shown below.
All data was normalized to the mean of 16 high and 16 low control wells on each plate. A four parameter curve fit of the following formula was then applied: Y=a+(b−a)/(1+(x/c)^d) Where ‘a’ is the minimum, ‘b’ is the maximum, ‘c’ is the pIC50 and ‘d’ is the Hill slope. Protein Expression and Purification
Recombinant human bromodomains containing the N-terminal bromodomain (BRD2-BD1 (71-194), BRD3-BD1 (24-144) and BRD4-BD1 (44-164)) or dual bromodomains (BRD4-BD12 (1-477), BRD4-BD12 (1-472)) were expressed in E. coli cells (in a modified pET vector) with an N-terminal six-His tag and purified using a combination of both IMAC (Ni-affinity) and size exclusion chromatography steps.
Recombinant BRD proteins were expressed using the E. coli strain BL21-CodonPlus (DE3) (Agilent Technologies CA, USA). Cells were grown in Terrific Broth (TB) media to an OD600 of 1.2 at 37° C. at which temperature was reduced to 25° C., protein was induced with 1.0 mM ispropyl-β-D-thiogalactopyranoside (“IPTG”) for 12-18 hours and harvested by centrifugation at 8000×g for 20 minutes. Cells were re-suspended in 0.1M K2PO4 pH 8.0, 250 mM NaCl, 10% Glycerol, 0.75% NP-40, 25 mM Imidazole, 5 mM beta-mercaptoethanol (“BME”) with 0.2 mg/ml Lysosyme, 2.0 mM phenylmethanesulfonyl fluoride (“PMSF”), 25 μg/ml DNAse I, incubated on ice for 30 minutes and lyzed with a cell disruptor (MicroFluidics MA, USA). The lysate was clarified by centrifugation at 20,000×g for 2 hours. The protein was captured with Ni-NTA resin (Life Technologies, USA). Contaminating proteins were washed off with 25 mM Tris-HCl pH 8.3, 250 mM NaCl, 12% Glycerol and 50 mM Imidazole. Following 3× wash steps, protein was eluted step wise using a 50 mM HEPES pH 7.5, 500 mM NaCl and 400 mM Imidazole. The protein was further purified using Gel Filtration column 26/600 Superdex 200 (GE Biosciences NJ, USA) in 50 mM HEPES pH 7.5, 250 mM NaCl. The protein was aliquoted and flash-frozen in liquid Nitrogen.

MV-4-11 cells = assay: Oncology cell growth assay MV-4-11 (CellTiter Glo); type: cell-based; settings: Homo sapiens, MV4-11, 72 h; MV-4-11, 3d growth; read-out: Cell activity (IC50 μM) MV-4-11 3d-Growth
Outline: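 Growth read by CellTiter Glo luminescence after 72 h compound treatment of MLL-AF4-bearing MV-4-11 cells (3000/well). Titration: 8 points, 1:3 steps, maximum 10 μM, 0.2% DMSO final. Data normalized to DMSO wells, four-parameter fit gives pIC50.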

| Structure (SMILES) | IC50 (BRD4-BD12 (1-477)) | IC50 (MV-4-11 cells) |
| --- | --- | --- |
| CC[C@@H](c1ccccn1)n1cc(-c2ccc(C(=O)O)c(C)c2)c2ncc(-c3c(C)noc3C)cc21 [P-1026, 4-[6-(3,5-dimethylisoxazol-4-yl)-1-[(1S)-1-(2-pyridyl)propyl]pyrrolo[3,2-b]pyridin-3-yl]-2-methyl-benzoic acid] | < 1 µM | < 1 µM |
| Cc1noc(C)c1-c1cnc2c(-c3ccc(C(=O)O)cc3)cn(Cc3ccncc3)c2c1 [P-0937, 4-[6-(3,5-dimethylisoxazol-4-yl)-1-(4-pyridylmethyl)pyrrolo[3,2-b]pyridin-3-yl]benzoic acid] | < 1 µM | < 1 µM |
| Cc1noc(C)c1-c1cnc2c(-c3ccc(C(=O)O)cc3)cn(Cc3ccc(F)cn3)c2c1 [P-0917, 4-[6-(3,5-dimethylisoxazol-4-yl)-1-[(5-fluoro-2-pyridyl)methyl]pyrrolo[3,2-b]pyridin-3-yl]benzoic acid] | < 1 µM | < 1 µM |
| Cc1noc(C)c1-c1cnc2c(-c3ccc(C(=O)O)cc3)cn(C(c3ccccn3)C3CCCC3)c2c1 (centres unmarked) [P-0995, 4-[1-[cyclopentyl(2-pyridyl)methyl]-6-(3,5-dimethylisoxazol-4-yl)pyrrolo[3,2-b]pyridin-3-yl]benzoic acid] | < 1 µM | < 1 µM |
| CC[C@@H](c1ccccn1)n1cc(-c2ccc(C(=O)O)c(Cl)c2)c2ncc(-c3c(C)noc3C)cc21 [P-1028, 2-chloro-4-[6-(3,5-dimethylisoxazol-4-yl)-1-[(1S)-1-(2-pyridyl)propyl]pyrrolo[3,2-b]pyridin-3-yl]benzoic acid] | < 1 µM | < 1 µM |
| COC(=O)C1(c2ccc(-c3cn(Cc4ccccn4)c4cc(-c5c(C)noc5C)cnc34)cc2)CC1 [P-0952, methyl 1-[4-[6-(3,5-dimethylisoxazol-4-yl)-1-(2-pyridylmethyl)pyrrolo[3,2-b]pyridin-3-yl]phenyl]cyclopropanecarboxylate] | < 1 µM | < 1 µM |
| Cc1noc(C)c1-c1cnc2c(-c3ccc(C(=O)O)cc3)cn(Cc3ccccc3F)c2c1 [P-0926, 4-[6-(3,5-dimethylisoxazol-4-yl)-1-[(2-fluorophenyl)methyl]pyrrolo[3,2-b]pyridin-3-yl]benzoic acid] | < 1 µM | < 1 µM |
| CC[C@@H](c1ccccn1)n1cc(-c2ccc(C#N)cc2)c2ncc(-c3c(C)noc3C)cc21 [P-0970, 4-[6-(3,5-dimethylisoxazol-4-yl)-1-[(1S)-1-(2-pyridyl)propyl]pyrrolo[3,2-b]pyridin-3-yl]benzonitrile] | < 1 µM | < 1 µM |
| COC(=O)Cc1ccc(-c2cn(C(c3ccccn3)C3CCC3)c3cc(-c4c(C)noc4C)cnc23)cc1 (centres unmarked) [P-1013, methyl 2-[4-[1-[cyclobutyl(2-pyridyl)methyl]-6-(3,5-dimethylisoxazol-4-yl)pyrrolo[3,2-b]pyridin-3-yl]phenyl]acetate] | < 1 µM | < 1 µM |
| Cc1noc(C)c1-c1cnc2c(I)cn([C@H](c3ccccn3)C3CC3)c2c1 [P-0988, 4-[1-[(S)-cyclopropyl(2-pyridyl)methyl]-3-iodo-pyrrolo[3,2-b]pyridin-6-yl]-3,5-dimethyl-isoxazole] | < 1 µM | < 1 µM |
| Cc1noc(C)c1-c1cnc2c(-c3ccc(CC(=O)O)cc3)cn(Cc3ccccn3)c2c1 [P-0973, 2-[4-[6-(3,5-dimethylisoxazol-4-yl)-1-(2-pyridylmethyl)pyrrolo[3,2-b]pyridin-3-yl]phenyl]acetic acid] | < 1 µM | < 1 µM |
| COC(=O)c1ccc(-c2cn(Cc3ccccc3OC)c3cc(-c4c(C)noc4C)cnc23)cc1 [P-0933, methyl 4-[6-(3,5-dimethylisoxazol-4-yl)-1-[(2-methoxyphenyl)methyl]pyrrolo[3,2-b]pyridin-3-yl]benzoate] | < 1 µM | 1 to 10 µM |
| COC(=O)Cc1ccc(-c2cn(C(c3ccccn3)C3CCCCC3)c3cc(-c4c(C)noc4C)cnc23)cc1 (centres unmarked) [P-1017, methyl 2-[4-[1-[cyclohexyl(2-pyridyl)methyl]-6-(3,5-dimethylisoxazol-4-yl)pyrrolo[3,2-b]pyridin-3-yl]phenyl]acetate] | < 1 µM | < 1 µM |
